Assay results from patent US8404857B2, “α-crystalline form of carbabenzpyride” (Farmak International Holding GmbH, priority 2010, dated 2013).
Where two headings read alike, the source gives them in different places. Marks after values point to notes of the source that are not given here.

Experiments:
[1] = system: Influenza A strain California (H3N2); assay type: cell-based; conditions: Table 9, NBL-2 cells, MOI 0.001, 24 h
[2] = system: Influenza A strain Victoria (H3N2); experiment: Virus yield reduction assay, Influenza A Victoria (H3N2); assay type: cell-based, Influenza A H3N2 (strain Victoria/3/75); conditions: Table 10, NBL-2 cells, MOI 0.01, 24 h
[3] = system: Influenza A strain New Caledonia (H1N1); assay type: cell-based; conditions: NBL-2 cells, MOI 0.01, 24 h
Adenovirus 5 = experiment: Virus yield reduction assay, Adenovirus 5; assay type: cell-based; conditions: A549 cells, MOI 0.05, 4 days
Enterovirus 71 = experiment: Virus yield reduction assay, Enterovirus 71; assay type: cell-based; conditions: HFF, MOI 0.1, 3 days
[4] = system: Human cytomegalovirus AD169; experiment: Virus yield reduction assay, Human cytomegalovirus AD169; assay type: cell-based; conditions: HFF, MOI 0.02, 5 days
Echo virus 30 = experiment: Virus yield reduction assay, Echo virus 30; assay type: cell-based; conditions: HFF, MOI 0.01, 3 days
Echo virus 11 = experiment: Virus yield reduction assay, Echo virus 11; assay type: cell-based; conditions: HFF, MOI 0.005, 3 days
Adenovirus 3 = experiment: Virus yield reduction assay, Adenovirus 3; assay type: cell-based; conditions: A549 cells, MOI 0.05, 4 days
Human metapneumovirus = experiment: Virus yield reduction assay, Human metapneumovirus; assay type: cell-based; conditions: MK2 cells, MOI 0.1, 8 days
[5] = system: Human cytomegalovirus Hi91; experiment: Virus yield reduction assay, Human cytomegalovirus Hi91; assay type: cell-based; conditions: HFF, MOI 0.02, 5 days
IFN-α = experiment: Circulating IFN-α levels in blood serum of volunteers with acute respiratory infection; assay type: in vivo, human; conditions: for IFN-α Mean value / IFN-α Median: blood serum
Description: (§1) Increase of IFN-α levels was also observed in patients treated with Placebo, yet, this growth was less intensive than in FAV00A group (Table 22).

Coxsackie virus A9 = experiment: Virus yield reduction assay, Coxsackie virus A9; assay type: cell-based; conditions: HFF, MOI 0.005, 3 days
IFN-γ = experiment: Circulating IFN-γ levels in blood serum of volunteers with acute respiratory infection; assay type: in vivo, human; conditions: for IFN-γ Mean value / IFN-γ Median: blood serum
Description: as §1

blood monocytes = experiment: Blood monocytes level (complete blood counts) of volunteers; assay type: in vivo, human; conditions: throughout the study; control group decreased by V3 and V4
Description: The results of investigating FAV00A effect of body interferon status correlate with the data collected during statistical processing of volunteers' complete blood counts. […] This fact is indicative of limitation of viral infection immunosuppressive effect on cellular immunity responses in FAV00A treatment group.

[6] = 7-th day of the drug intake (Visit V3)
[7] = Visit V3 (7-th day of drug intake)
[8] = Table 8, 400 μg with 45 minutes pre-incubation
[9] = Table 8, 400 μg without pre-incubation

## CC(=O)N[C@H]1[C@H]([C@H](O)[C@H](O)CO)OC(C(=O)O)=C[C@@H]1N=C(N)N [Zanamivir, reference compound]
[1]; 100 ng
  % virus yield relative to control: 0.4%
  Fold reduction: 250
  Titer (TCFD50/ml): 1.18 * 10^2 TCFD50/ml
[2]; 100 ng
  % virus yield relative to control: 0.02%
  Fold reduction: 5000
  Titer (TCID50/ml): 7.05 * 10^2 TCID50/ml
[3]; Table 8, 10 ng
  % virus yield relative to control: 23%
  Fold reduction: 4.35
  Titer (TCID50/ml): 4.85 * 10^5 TCID50/ml
[3]; Table 11a, 100 ng
  % virus yield relative to control: 3%
  Fold reduction: 33.33
  Titer (TCID50/ml): 7.00 * 10^4 TCID50/ml
[3]; Table 12b, 100 ng
  % virus yield relative to control: 15%
  Fold reduction: 6.67
  Titer (TCID50/ml): 1.42 * 10^6 TCID50/ml

## C[n+]1ccc(C(=O)NCc2ccccc2)cc1 [FAV00A, carbabenzpyride]
Adenovirus 5; FAV00A 12.5 μg/ml
  Virus titre: 7.0 × 10^8 TCID50/ml
Adenovirus 5; FAV00A 25 μg/ml
  % titre reduction in comparison to virus control: (43.7%)
  Virus titre: 3.0 × 10^8 TCID50/ml
Adenovirus 5; FAV00A 50 μg/ml
  % titre reduction in comparison to virus control: (68.4%)^1
  Virus titre: 1.7 × 10^8 TCID50/ml
Enterovirus 71; FAV00A 50 μg/ml
  Virus titre: 5.4 × 10^3 TCID50/ml
Enterovirus 71; FAV00A 100 μg/ml
  % titre reduction in comparison to virus control: (83.6%)
  Virus titre: 6.5 × 10^2 TCID50/ml
Enterovirus 71; FAV00A 200 μg/ml
  % titre reduction in comparison to virus control: (97.6%)^1
  Virus titre: 9.6 × 10^1 TCID50/ml
[4]; FAV00A 125 μg/ml
  Virus titre: 2.2 × 10^5 TCID50/ml
[4]; FAV00A 250 μg/ml
  Virus titre: 1.0 × 10^5 TCID50/ml
[4]; FAV00A 500 μg/ml
  % titre reduction in comparison to virus control: (41.1%)^1
  Virus titre: 5.3 × 10^4 TCID50/ml
[1]; 400 μg
  % virus yield relative to control: 76%
  Fold reduction: 1.32
  Titer (TCFD50/ml): 2.25 * 10^4 TCFD50/ml
[1]; 800 μg
  % virus yield relative to control: 61%
  Fold reduction: 1.64
  Titer (TCFD50/ml): 1.80 * 10^4 TCFD50/ml
[2]; 400 μg
  % virus yield relative to control: 41%
  Fold reduction: 2.44
  Titer (TCID50/ml): 1.20 * 10^6 TCID50/ml
[2]; 800 μg
  % virus yield relative to control: 27%
  Fold reduction: 3.70
  Titer (TCID50/ml): 7.75 * 10^5 TCID50/ml
Echo virus 30; FAV00A 25 μg/ml
  Virus titre: 1.2 × 10^8 TCID50/ml
Echo virus 30; FAV00A 50 μg/ml
  % titre reduction in comparison to virus control: (17.0%)
  Virus titre: 7.9 × 10^7 TCID50/ml
Echo virus 30; FAV00A 100 μg/ml
  % titre reduction in comparison to virus control: (68.3%)^1
  Virus titre: 3.0 × 10^7 TCID50/ml
Echo virus 11; FAV00A 62.5 μg/ml
  % titre reduction in comparison to virus control: (41.8%)
  Virus titre: 1.8 × 10^8 TCID50/ml
Echo virus 11; FAV00A 125 μg/ml
  % titre reduction in comparison to virus control: (36.4%)
  Virus titre: 1.9 × 10^8 TCID50/ml
Echo virus 11; FAV00A 250 μg/ml
  % titre reduction in comparison to virus control: (79.9%)^1
  Virus titre: 6.1 × 10^7 TCID50/ml
Adenovirus 3; FAV00A 12.5 μg/ml
  Virus titre: 7.2 × 10^7 TCID50/ml
Adenovirus 3; FAV00A 25 μg/ml
  % titre reduction in comparison to virus control: (11.3%)
  Virus titre: 5.4 × 10^7 TCID50/ml
Adenovirus 3; FAV00A 50 μg/ml
  % titre reduction in comparison to virus control: (43.5%)^1
  Virus titre: 3.4 × 10^7 TCID50/ml
Human metapneumovirus; FAV00A 125 μg/ml
  % titre reduction in comparison to virus control: (88.5%)
  Virus titre: 4.0 × 10^4 TCID50/ml
Human metapneumovirus; FAV00A 250 μg/ml
  Virus titre: 5.4 × 10^4 TCID50/ml
Human metapneumovirus; FAV00A 500 μg/ml
  % titre reduction in comparison to virus control: (95.6%)^1
  Virus titre: 2.0 × 10^3 TCID50/ml
[5]; FAV00A 125 μg/ml
  % titre reduction in comparison to virus control: (24.9%)
[5]; FAV00A 250 μg/ml
  % titre reduction in comparison to virus control: (86.0%)
  Virus titre: 5.2 × 10^3 TCID50/ml
[5]; FAV00A 500 μg/ml
  % titre reduction in comparison to virus control: (93.5%)^1
  Virus titre: 2.4 × 10^3 TCID50/ml
IFN-α; [6]
  IFN-α levels versus the baseline values and Placebo group: Significant elevation
IFN-α; Visit V1 (baseline)
  IFN-α Mean value: 22.290
  IFN-α Median: 23.7
IFN-α; [7]
  IFN-α Mean value: 37.563*
  IFN-α Median: 37.4*
IFN-α; Visit V4
  IFN-α Mean value: 30.072*
  IFN-α Median: 30.55*
Coxsackie virus A9; FAV00A 12.5 μg/ml
  % titre reduction in comparison to virus control: (45.3%)
  Virus titre: 1.7 × 10^4 TCID50/ml
Coxsackie virus A9; FAV00A 25 μg/ml
  % titre reduction in comparison to virus control: (45.7%)
  Virus titre: 1.7 × 10^5 TCID50/ml
Coxsackie virus A9; FAV00A 50 μg/ml
  % titre reduction in comparison to virus control: (65.3%)^1
  Virus titre: 1.1 × 10^5 TCID50/ml
IFN-γ; [6]
  IFN-γ levels versus the baseline values and Placebo group: Significant elevation
IFN-γ; Visit V1 (baseline)
  IFN-γ Mean value: 33.168
  IFN-γ Median: 33.25
IFN-γ; [7]
  IFN-γ Mean value: 44.670*
  IFN-γ Median: 45.85*
IFN-γ; Visit V4
  IFN-γ Mean value: 41.313*
  IFN-γ Median: 40.1*
Blood monocytes
  Change of blood monocytes level: No considerable decrease
[3]; [8]
  % virus yield relative to control: 52%
  Fold reduction: 1.92
  Titer (TCID50/ml): 1.10 * 10^6 TCID50/ml
[3]; [9]
  % virus yield relative to control: 31%
  Fold reduction: 3.23
  Titer (TCID50/ml): 6.56 * 10^5 TCID50/ml
[3]; Table 11a, 400 μg
  % virus yield relative to control: 32%
  Fold reduction: 3.13
  Titer (TCID50/ml): 6.81 * 10^3 TCID50/ml
[3]; Table 12b, 800 μg
  % virus yield relative to control: 28%
  Fold reduction: 3.57
  Titer (TCID50/ml): 2.70 * 10^6 TCID50/ml
